Patent publication US20240415914A1, “Water Dispersible Cannabinoid Compositions” (priority 2021, published 2024)

Test: Stability of cannabinoid and Vitamin E components of Beverage 1 (AB White) stored at 8° C. and 21-25° C., LCMSMS over 570 days
Type: physicochemical
Settings: for Stability in AB White, 8° C. (content by LCMSMS): beverage stored at 8° C.; for Stability in AB White, 21-25° C. (content by LCMSMS): beverage stored at 21-25° C.
Protocol: The LCMSMS was calibrated for 0-1000 ng/ml cannabinoids with the same resin material used in the preparation of the concentrates. At each time period, 100 ml of beverage was diluted with 10 ml of methanol and injected into the LCMSMS for analysis.

In the case of `CCCCCc1cc(O)c2c(c1)OC1(C)CCC3C1C2C3(C)C` (centres unmarked) [CBL, cannabicyclol], the “Stability in AB White, 8° C. (content by LCMSMS)” value (day 0) is reported as 0.550 µg/mL, the “Stability in AB White, 8° C. (content by LCMSMS)” value (day 1) is reported as 0.541 µg/mL and the “Stability in AB White, 8° C. (content by LCMSMS)” value (day 2) is reported as 0.542 µg/mL. For the same compound, the “Stability in AB White, 8° C. (content by LCMSMS)” value (day 3) was 0.553 µg/mL, the “Stability in AB White, 8° C. (content by LCMSMS)” value (day 5) was 0.552 µg/mL and the “Stability in AB White, 8° C. (content by LCMSMS)” value (day 8) was 0.537 µg/mL. For the same compound, the “Stability in AB White, 8° C. (content by LCMSMS)” value (day 9) was 0.535 µg/mL, the “Stability in AB White, 8° C. (content by LCMSMS)” value (day 10) was 0.544 µg/mL and the “Stability in AB White, 8° C. (content by LCMSMS)” value (day 11) was 0.544 µg/mL. The “Stability in AB White, 8° C. (content by LCMSMS)” value (day 12) was 0.553 µg/mL, the “Stability in AB White, 8° C. (content by LCMSMS)” value (day 15) was 0.534 µg/mL and the “Stability in AB White, 8° C. (content by LCMSMS)” value (day 16) was 0.546 µg/mL. For the same compound, the “Stability in AB White, 8° C. (content by LCMSMS)” value (day 17) was 0.540 µg/mL, the “Stability in AB White, 8° C. (content by LCMSMS)” value (day 18) was 0.536 µg/mL and the “Stability in AB White, 8° C. (content by LCMSMS)” value (day 19) was 0.537 µg/mL. For the same compound, the “Stability in AB White, 8° C. (content by LCMSMS)” value (day 22) was 0.555 µg/mL, the “Stability in AB White, 8° C. (content by LCMSMS)” value (day 23) was 0.545 µg/mL and the “Stability in AB White, 8° C. (content by LCMSMS)” value (day 24) was 0.548 µg/mL. For the same compound, the “Stability in AB White, 8° C. (content by LCMSMS)” value (day 25) was 0.540 µg/mL, the “Stability in AB White, 8° C. (content by LCMSMS)” value (day 26) was 0.534 µg/mL and the “Stability in AB White, 8° C. (content by LCMSMS)” value (day 29) was 0.547 µg/mL. For the same compound, the “Stability in AB White, 8° C. (content by LCMSMS)” value (day 30) was 0.544 µg/mL, the “Stability in AB White, 8° C. (content by LCMSMS)” value (day 60) was 0.543 µg/mL and the “Stability in AB White, 8° C. (content by LCMSMS)” value (day 90) was 0.527 µg/mL. For the same compound, the “Stability in AB White, 8° C. (content by LCMSMS)” value (day 120) was 0.534 µg/mL, the “Stability in AB White, 8° C. (content by LCMSMS)” value (day 150) was 0.540 µg/mL and the “Stability in AB White, 8° C. (content by LCMSMS)” value (day 180) was 0.542 µg/mL. For the same compound, the “Stability in AB White, 8° C. (content by LCMSMS)” value (day 210) was 0.534 µg/mL, the “Stability in AB White, 8° C. (content by LCMSMS)” value (day 240) was 0.535 µg/mL and the “Stability in AB White, 8° C. (content by LCMSMS)” value (day 270) was 0.539 µg/mL. For the same compound, the “Stability in AB White, 8° C. (content by LCMSMS)” value (day 300) was 0.526 µg/mL, the “Stability in AB White, 8° C. (content by LCMSMS)” value (day 330) was 0.543 µg/mL and the “Stability in AB White, 8° C. (content by LCMSMS)” value (day 360) was 0.533 µg/mL. For the same compound, the “Stability in AB White, 8° C. (content by LCMSMS)” value (day 390) was 0.535 µg/mL, the “Stability in AB White, 8° C. (content by LCMSMS)” value (day 420) was 0.526 µg/mL and the “Stability in AB White, 8° C. (content by LCMSMS)” value (day 450) was 0.532 µg/mL. For the same compound, the “Stability in AB White, 8° C. (content by LCMSMS)” value (day 480) was 0.521 µg/mL, the “Stability in AB White, 8° C. (content by LCMSMS)” value (day 510) was 0.514 µg/mL and the “Stability in AB White, 8° C. (content by LCMSMS)” value (day 540) was 0.514 µg/mL. For the same compound, the “Stability in AB White, 8° C. (content by LCMSMS)” value (day 570) was 0.503 µg/mL, the “Stability in AB White, 21-25° C. (content by LCMSMS)” value (day 0) was 0.550 µg/mL and the “Stability in AB White, 21-25° C. (content by LCMSMS)” value (day 1) was 0.539 µg/mL. The “Stability in AB White, 21-25° C. (content by LCMSMS)” value (day 2) was 0.540 µg/mL, the “Stability in AB White, 21-25° C. (content by LCMSMS)” value (day 3) was 0.543 µg/mL and the “Stability in AB White, 21-25° C. (content by LCMSMS)” value (day 5) was 0.530 µg/mL. The “Stability in AB White, 21-25° C. (content by LCMSMS)” value (day 8) was 0.542 µg/mL, the “Stability in AB White, 21-25° C. (content by LCMSMS)” value (day 9) was 0.535 µg/mL and the “Stability in AB White, 21-25° C. (content by LCMSMS)” value (day 10) was 0.546 µg/mL. The “Stability in AB White, 21-25° C. (content by LCMSMS)” value (day 11) was 0.552 µg/mL, the “Stability in AB White, 21-25° C. (content by LCMSMS)” value (day 12) was 0.529 µg/mL and the “Stability in AB White, 21-25° C. (content by LCMSMS)” value (day 15) was 0.548 µg/mL. For the same compound, the “Stability in AB White, 21-25° C. (content by LCMSMS)” value (day 16) was 0.537 µg/mL, the “Stability in AB White, 21-25° C. (content by LCMSMS)” value (day 17) was 0.554 µg/mL and the “Stability in AB White, 21-25° C. (content by LCMSMS)” value (day 18) was 0.554 µg/mL. For the same compound, the “Stability in AB White, 21-25° C. (content by LCMSMS)” value (day 19) was 0.552 µg/mL, the “Stability in AB White, 21-25° C. (content by LCMSMS)” value (day 22) was 0.547 µg/mL and the “Stability in AB White, 21-25° C. (content by LCMSMS)” value (day 23) was 0.530 µg/mL. The “Stability in AB White, 21-25° C. (content by LCMSMS)” value (day 24) was 0.546 µg/mL, the “Stability in AB White, 21-25° C. (content by LCMSMS)” value (day 25) was 0.532 µg/mL and the “Stability in AB White, 21-25° C. (content by LCMSMS)” value (day 26) was 0.549 µg/mL. For the same compound, the “Stability in AB White, 21-25° C. (content by LCMSMS)” value (day 29) was 0.552 µg/mL, the “Stability in AB White, 21-25° C. (content by LCMSMS)” value (day 30) was 0.543 µg/mL and the “Stability in AB White, 21-25° C. (content by LCMSMS)” value (day 60) was 0.544 µg/mL. The “Stability in AB White, 21-25° C. (content by LCMSMS)” value (day 90) was 0.541 µg/mL, the “Stability in AB White, 21-25° C. (content by LCMSMS)” value (day 120) was 0.516 µg/mL and the “Stability in AB White, 21-25° C. (content by LCMSMS)” value (day 150) was 0.517 µg/mL. For the same compound, the “Stability in AB White, 21-25° C. (content by LCMSMS)” value (day 180) was 0.527 µg/mL, the “Stability in AB White, 21-25° C. (content by LCMSMS)” value (day 210) was 0.514 µg/mL and the “Stability in AB White, 21-25° C. (content by LCMSMS)” value (day 240) was 0.515 µg/mL. For the same compound, the “Stability in AB White, 21-25° C. (content by LCMSMS)” value (day 270) was 0.535 µg/mL, the “Stability in AB White, 21-25° C. (content by LCMSMS)” value (day 300) was 0.532 µg/mL and the “Stability in AB White, 21-25° C. (content by LCMSMS)” value (day 330) was 0.526 µg/mL. For the same compound, the “Stability in AB White, 21-25° C. (content by LCMSMS)” value (day 360) was 0.526 µg/mL, the “Stability in AB White, 21-25° C. (content by LCMSMS)” value (day 390) was 0.518 µg/mL and the “Stability in AB White, 21-25° C. (content by LCMSMS)” value (day 420) was 0.523 µg/mL. The “Stability in AB White, 21-25° C. (content by LCMSMS)” value (day 450) was 0.521 µg/mL, the “Stability in AB White, 21-25° C. (content by LCMSMS)” value (day 480) was 0.510 µg/mL and the “Stability in AB White, 21-25° C. (content by LCMSMS)” value (day 510) was 0.503 µg/mL. The “Stability in AB White, 21-25° C. (content by LCMSMS)” value (day 540) was 0.510 µg/mL and the “Stability in AB White, 21-25° C. (content by LCMSMS)” value (day 570) was 0.505 µg/mL.
